One data set has as its system Staphylococcus aureus. Kind of data set: Antimicrobial activity against Staphylococcus aureus CMCC 26003 at 5 times MIC measured at 180 mins. It counts as functional, organism-based.
Data set [1] in a line: Hemolytic activity at human Erythrocyte assessed as hemolysis at 100 microg/ml. It counts as toxicity, cell-based. The settings on record: erythrocytes, at 100 µg/mL, read-out: Activity.
Data set [2] has as its system Peritoneal macrophage. Kind of data set: Cytotoxicity against mouse Peritoneal macrophage cells assessed as survival rate at 100 microg/ml. It counts as functional. The settings on record: read-out: Survival.
For data set [3], the system named is Peritoneal macrophage. Kind of data set: Antiinflammatory activity in mouse Peritoneal macrophage cells assessed as inhibition of LPS-induced IL-6 production at 20 microg/ml incubated for 6 hrs by ELISA analysis. The settings on record: dose 20.0 µg/ml. It counts as functional, cell-based.
The next data set concerns HaCaT. Kind of data set: Cytotoxicity against human HaCaT cells assessed as survival rate at 100 microg/ml. Format: functional. The note with it: read-out: Survival.
Data set [4] concerns Peritoneal macrophage. Kind of data set: Antiinflammatory activity in mouse Peritoneal macrophage cells assessed as inhibition of LPS-induced TNF-alpha production at 20 microg/ml incubated for 6 hrs by ELISA analysis. It counts as functional, cell-based. The settings on record: dose 20.0 µg/ml. A general note: ELISA stands for enzyme-linked immunosorbent assay.
In the next data set the test system is 4T1. Kind of data set: Cytotoxicity against mouse 4T1 cells assessed as survival rate at 100 microg/ml. The settings on record: read-out: Survival. Format: functional.
Another data set has as its system B16-F10. Kind of data set: Cytotoxicity against mouse B16-F10 cells assessed as survival rate at 100 microg/ml. The settings on record: read-out: Survival. Format: functional.
Data set [5] deals with Peritoneal macrophage. Kind of data set: Cytotoxicity against mouse Peritoneal macrophage cells assessed as decrease in cell number at 20 microg/ml. Format: functional, cell-based. The note with it: dose 20.0 µg/ml.

Activity calls are given as the source filed them. No cut-off for these calls is given here. Starred links: 1 amine or outer side, 2 acyl side, 3 side chain; linkers in the order of their positions; H or OH if unused. Positions of bridges follow the written chain, without caps; N, C: chain ends. Non-standard residues stand in square brackets, D forms with d. Residues, ends and D or L forms follow the SMILES beside them. X2 = C[C@](CCCCCCCC=[*:3])(N[*:1])C(=O)[*:2]; X1 = C[C@@](CCCCC=[*:3])(N[*:1])C(=O)[*:2]

As to H-RKQLGRVLRHSRITVGGRMRF-OH, the result in the data set with Staphylococcus aureus was inactive.

In the case of `CC[C@H](C)[C@H](NC(=O)[C@H](CCCNC(=N)N)NC(=O)[C@H](CO)NC(=O)[C@H](Cc1c[nH]cn1)NC(=O)[C@H](CCCNC(=N)N)NC(=O)[C@H](CC(C)C)NC(=O)[C@@H](NC(=O)[C@@H]1CSSC[C@H](NC(=O)[C@@H](NC(=O)[C@H](CCCCN)NC(=O)[C@H](CCCCN)NC(=O)[C@@H](N)Cc2ccccc2)C(C)C)C(=O)N[C@@H](CCCNC(=N)N)C(=O)N[C@@H](CCCCN)C(=O)N[C@@H](CCC(N)=O)C(=O)N[C@@H](CC(C)C)C(=O)NCC(=O)N[C@@H](CCCNC(=N)N)C(=O)N1)C(C)C)C(=O)N[C@H](C(=O)N[C@H](C(=O)NCC(=O)NCC(=O)N[C@@H](CCCNC(=N)N)C(=O)N[C@@H](CCSC)C(=O)N[C@@H](CCCNC(=N)N)C(=O)N[C@@H](Cc1ccccc1)C(=O)O)C(C)C)[C@@H](C)O` (H-FKKVCRKQLGRCVLRHSRITVGGRMRF-OH; disulfide 5-12), the hemolysis at 100 microg/ml in data set [1] is < 5%. Besides, the viability at 100 µg/mL in the data set on Peritoneal macrophage [2] and in the data set on HaCaT was > 80% throughout. Moreover, the result in the data set with Staphylococcus aureus was inactive. Also, the result with Peritoneal macrophage [3] and with Peritoneal macrophage [4] was Active.

On to H-QLGRVLRHSRITVGGRMRF-OH, for which the result with Staphylococcus aureus was inactive.

As for H-RHSRITVGGRMRF-OH, the result with Staphylococcus aureus was inactive.

For the compound H-KVRKQLGRVLRHSRITVGGRMRF-OH, the result in the data set on Staphylococcus aureus was inactive.

`CC[C@H](C)[C@@H]1NC(=O)[C@H](CCCNC(=N)N)NC(=O)[C@H](CO)NC(=O)[C@H](Cc2c[nH]cn2)NC(=O)[C@H](CCCNC(=N)N)NC(=O)[C@H](CC(C)C)NC(=O)[C@H](C(C)C)NC(=O)[C@H](CCCNC(=N)N)NC(=O)CNC(=O)[C@H](CC(C)C)NC(=O)[C@H](CCC(N)=O)NC(=O)[C@H](CCCCN)NC(=O)[C@H](CCCNC(=N)N)NC(=O)[C@H](C(C)C)NC(=O)[C@H](CCCCN)NC(=O)[C@H](CCCCN)NC(=O)[C@H](Cc2ccccc2)NC(=O)[C@@H](N)CSSC[C@@H](C(=O)O)NC(=O)[C@H](Cc2ccccc2)NC(=O)[C@H](CCCNC(=N)N)NC(=O)[C@H](CCSC)NC(=O)[C@H](CCCNC(=N)N)NC(=O)CNC(=O)CNC(=O)[C@H](C(C)C)NC(=O)[C@H]([C@@H](C)O)NC1=O` (H-CFKKVRKQLGRVLRHSRITVGGRMRFC-OH; disulfide 1-27): in [1], the hemolysis at 100 microg/ml was < 5%. In addition, the viability at 100 µg/mL in the data set with Peritoneal macrophage [2] and in the data set with HaCaT was > 80% each time. For the same compound, in the data set on Staphylococcus aureus, the result was inactive. The result in the data set with Peritoneal macrophage [3] and with Peritoneal macrophage [4] was Active.

Turning to H-RRSRFGRFFKKVR-NH2, the outcome with Staphylococcus aureus was inactive.

For the compound H-RRSRFGRFFKKVRKQLG-NH2, the viability at 100 µg/mL with 4T1 is < 40%; in the data set on Peritoneal macrophage [2] it was 80%; with B16-F10, < 40%; in the data set with HaCaT it was 80%. Moreover, the result with Staphylococcus aureus was inactive.

For H-RRSRFGRFFKKVRKQ-NH2, the outcome in the data set on Staphylococcus aureus was inactive.

As to H-RRSRFGRFFKKVRKQLGRVLRHSRITVGGRMRF-OH, the result in the data set on Staphylococcus aureus was inactive.

In the case of `CC[C@H](C)[C@H](NC(=O)[C@H](CCCNC(=N)N)NC(=O)[C@H](CO)NC(=O)[C@H](Cc1c[nH]cn1)NC(=O)[C@]1(C)CCCC/C=C\CCCCCCC[C@@](C)(NC(=O)[C@H](CCCNC(=N)N)NC(=O)[C@@H](NC(=O)[C@H](CCCCN)NC(=O)[C@H](CCCCN)NC(=O)[C@@H](N)Cc2ccccc2)C(C)C)C(=O)N[C@@H](CCC(N)=O)C(=O)N[C@@H](CC(C)C)C(=O)NCC(=O)N[C@@H](CCCNC(=N)N)C(=O)N[C@@H](C(C)C)C(=O)N[C@@H](CC(C)C)C(=O)N1)C(=O)N[C@H](C(=O)N[C@H](C(=O)NCC(=O)NCC(=O)N[C@@H](CCCNC(=N)N)C(=O)N[C@@H](CCSC)C(=O)N[C@@H](CCCNC(=N)N)C(=O)N[C@@H](Cc1ccccc1)C(=O)O)C(C)C)[C@@H](C)O` (H-FKKVR[X2]QLGRVL[X1]HSRITVGGRMRF-OH; staple (Z) 6-13), the hemolysis at 100 microg/ml in data set [1] was < 5%. The outcome in the data set on Staphylococcus aureus was inactive. The outcome in the data set on Peritoneal macrophage [3] and in the data set with Peritoneal macrophage [4] was Active.

In the case of H-RRSRFGRFFKKVRKQLGRV-NH2, the viability at 100 µg/mL in the data set with 4T1 is < 40%; with Peritoneal macrophage [2], 80%; in the data set on B16-F10, < 40%; in the data set on HaCaT, 80%. Moreover, the result in the data set on Staphylococcus aureus was inactive.

For H-GRVLRHSRITVGGRMRF-OH, in the data set on Staphylococcus aureus, the outcome was inactive.

Turning to `CC[C@H](C)[C@H](NC(=O)[C@H](CCCNC(=N)N)NC(=O)[C@H](CO)NC(=O)[C@H](Cc1c[nH]cn1)NC(=O)[C@H](CCCNC(=N)N)NC(=O)[C@H](CC(C)C)NC(=O)[C@@H](NC(=O)[C@H](CCCNC(=N)N)NC(=O)CNC(=O)[C@]1(C)CCCC/C=C\CCCCCCC[C@@](C)(N)C(=O)N[C@@H](CCCCN)C(=O)N[C@@H](CCCCN)C(=O)N[C@@H](C(C)C)C(=O)N[C@@H](CCCNC(=N)N)C(=O)N[C@@H](CCCCN)C(=O)N[C@@H](CCC(N)=O)C(=O)N1)C(C)C)C(=O)N[C@H](C(=O)N[C@H](C(=O)NCC(=O)NCC(=O)N[C@@H](CCCNC(=N)N)C(=O)N[C@@H](CCSC)C(=O)N[C@@H](CCCNC(=N)N)C(=O)N[C@@H](Cc1ccccc1)C(=O)O)C(C)C)[C@@H](C)O` (H-[X2]KKVRKQ[X1]GRVLRHSRITVGGRMRF-OH; staple (Z) 1-8), the hemolysis at 100 microg/ml in [1] was < 5%. The result in the data set with Staphylococcus aureus was inactive. The outcome in the data set with Peritoneal macrophage [3] and in the data set with Peritoneal macrophage [4] was Active.

In the case of `CC[C@H](C)[C@H](NC(=O)[C@H](CCCNC(=N)N)NC(=O)[C@H](CO)NC(=O)[C@H](Cc1c[nH]cn1)NC(=O)[C@H](CCCNC(=N)N)NC(=O)[C@H](CC(C)C)NC(=O)[C@@H](NC(=O)[C@H](CCCNC(=N)N)NC(=O)CNC(=O)[C@H](CC(C)C)NC(=O)[C@H](CCC(N)=O)NC(=O)[C@]1(C)CCCC/C=C\CCCC[C@](C)(NC(=O)[C@@H](N)Cc2ccccc2)C(=O)N[C@@H](CCCCN)C(=O)N[C@@H](C(C)C)C(=O)N[C@@H](CCCNC(=N)N)C(=O)N1)C(C)C)C(=O)N[C@H](C(=O)N[C@H](C(=O)NCC(=O)NCC(=O)N[C@@H](CCCNC(=N)N)C(=O)N[C@@H](CCSC)C(=O)N[C@@H](CCCNC(=N)N)C(=O)N[C@@H](Cc1ccccc1)C(=O)O)C(C)C)[C@@H](C)O` (H-F[X1]KVR[X1]QLGRVLRHSRITVGGRMRF-OH; staple (Z) 2-6), the hemolysis at 100 microg/ml in [1] was < 5%. For the same compound, the outcome in the data set on Staphylococcus aureus was inactive. Also, the result with Peritoneal macrophage [3] and with Peritoneal macrophage [4] was Active.

With H-VLRHSRITVGGRMRF-OH, the result with Staphylococcus aureus was inactive.

H-RFFKKVRKQLGRVLRHSRITVGGRMRF-OH: the outcome in the data set with Peritoneal macrophage [5], in the data set with Peritoneal macrophage [3] and in the data set on Peritoneal macrophage [4] was Active. Moreover, the viability at 100 µg/mL in the data set on 4T1 is < 40%. Besides, in the data set with Staphylococcus aureus, the outcome was inactive.

`CC[C@H](C)[C@H](NC(=O)[C@H](CCCNC(=N)N)NC(=O)[C@H](CO)NC(=O)[C@H](Cc1c[nH]cn1)NC(=O)[C@H](CCCNC(=N)N)NC(=O)[C@H](CC(C)C)NC(=O)[C@@H](NC(=O)[C@H](CCCNC(=N)N)NC(=O)CNC(=O)[C@]1(C)CCCC/C=C\CCCC[C@](C)(NC(=O)[C@H](CCCCN)NC(=O)[C@H](CCCCN)NC(=O)[C@@H](N)Cc2ccccc2)C(=O)N[C@@H](CCCNC(=N)N)C(=O)N[C@@H](CCCCN)C(=O)N[C@@H](CCC(N)=O)C(=O)N1)C(C)C)C(=O)N[C@H](C(=O)N[C@H](C(=O)NCC(=O)NCC(=O)N[C@@H](CCCNC(=N)N)C(=O)N[C@@H](CCSC)C(=O)N[C@@H](CCCNC(=N)N)C(=O)N[C@@H](Cc1ccccc1)C(=O)O)C(C)C)[C@@H](C)O` (H-FKK[X1]RKQ[X1]GRVLRHSRITVGGRMRF-OH; staple (Z) 4-8): the hemolysis at 100 microg/ml in [1] was < 5%. Besides, in the data set with Staphylococcus aureus, the result was inactive. The result in the data set on Peritoneal macrophage [3] and in the data set with Peritoneal macrophage [4] was Active.

On to H-SRFGRFFKKVRKQLGRVLRHSRITVGGRMRF-OH, for which the outcome in the data set with Peritoneal macrophage [5], in the data set on Peritoneal macrophage [3] and with Peritoneal macrophage [4] was Active. The viability at 100 µg/mL in the data set with 4T1 is < 40%. Besides, the result with Staphylococcus aureus was inactive.

With `CC[C@H](C)[C@H](NC(=O)[C@H](CCCNC(=N)N)NC(=O)[C@H](CO)NC(=O)[C@H](Cc1c[nH]cn1)NC(=O)[C@H](CCCNC(=N)N)NC(=O)[C@]1(C)CCCC/C=C\CCCC[C@](C)(NC(=O)[C@H](CCC(N)=O)NC(=O)[C@H](CCCCN)NC(=O)[C@H](CCCNC(=N)N)NC(=O)[C@@H](NC(=O)[C@H](CCCCN)NC(=O)[C@H](CCCCN)NC(=O)[C@@H](N)Cc2ccccc2)C(C)C)C(=O)NCC(=O)N[C@@H](CCCNC(=N)N)C(=O)N[C@@H](C(C)C)C(=O)N1)C(=O)N[C@H](C(=O)N[C@H](C(=O)NCC(=O)NCC(=O)N[C@@H](CCCNC(=N)N)C(=O)N[C@@H](CCSC)C(=O)N[C@@H](CCCNC(=N)N)C(=O)N[C@@H](Cc1ccccc1)C(=O)O)C(C)C)[C@@H](C)O` (H-FKKVRKQ[X1]GRV[X1]RHSRITVGGRMRF-OH; staple (Z) 8-12), the hemolysis at 100 microg/ml in data set [1] was < 5%. In addition, the result in the data set on Staphylococcus aureus was inactive. The outcome in the data set on Peritoneal macrophage [3] and in the data set with Peritoneal macrophage [4] was Active.

Take H-FGRFFKKVRKQLGRVLRHSRITVGGRMRF-OH: the outcome with Peritoneal macrophage [5], in the data set with Peritoneal macrophage [3] and in the data set with Peritoneal macrophage [4] was Active. Besides, the viability at 100 µg/mL in the data set on 4T1 is < 40%. Further, in the data set with Staphylococcus aureus, the result was inactive.
